Results on one compound are retold here after patent US9533969B2, “Materials and method for inhibiting replication protein A and uses thereof” (Indiana University Research and Technology Corp., priority 2010, dated 2017).

Structures are written as SMILES.

The IC50 is the concentration needed to halve the response being measured.

The subject of one series is A549 NSCLC cell line. Nature of the series: Cytotoxicity in A549 cells. Type of series: cell-based. The note with it: data not shown.
In the next series the test system is H460 NSCLC cells. Nature of the series: Cell cycle distribution by PI flow cytometry. It is filed as cell-based, human. The protocol: H460 cells were analyzed for apoptosis using an Annexin V-FITC/Propidium iodide (PI) Vybrant Apoptosis Assay Kit (Invitrogen), according to manufacturer's instructions. Cells were plated at a density of 1×10^4 cells per cm^2 and allowed to adhere for 24 hours and then treated with compound TDLR-505 for 48 hours. Following plating and treatment of H460 cells as described above, adherent and non-adherent cells were collected, processed, and analyzed on a BD FACScan flow cytometer. Data was analyzed using WinMDI software (http://facs.scripps.edu/software.html). Cell cycle analysis was performed by PI staining Briefly, cells were plated and treated with compound collected and then washed twice with PBS-EDTA supplemented with 1% BSA. Cells were fixed in 70% EtOH at −20° C. while vortexing followed by incubation on ice for 30 minutes. […] Cells were analyzed on a Becton Dickinson FACScan flow cytometer. Cells were gated and analyzed on a histogram with events plotted against the FL2-A parameter. Cell cycle distribution was analyzed using ModFit software. […] Cells were harvested and analyzed for cell cycle distribution as described above.
Referring now to FIG. 5A. H460 NSCLC cells were treated with 0 and 75 μM of compound TDLR-505 for 48 hours and then analyzed for cell cycle distribution using flow cytometry. […] Cells were then harvested and analyzed for cell cycle distribution using flow cytometry. […]

The test system of a further series is H460 cells. Nature of the series: Combination index analysis with cisplatin or etoposide. It is filed as cell-based, human. The note with it: 48 hours. The protocol: In addition to its essential role in DNA replication, RPA is required for the repair of bulky DNA adducts as well as DNA breaks induced by various types of exogenous and endogenous agents. […] In order to determine the effect of RPA inhibition on cellular sensitivity to cisplatin, the combination index (CI) (20) was measured. Referring now to FIG. 6. As illustrated in this experiment, compound TDLR-505 acts synergistically with both cisplatin and etoposide in H460 cells. H460 cells were treated with increasing fractions of the IC50 concentration of either cisplatin or etoposide with compound TDLR-505 for 48 hours. After treatment, cells were harvested and analyzed by annexin V/PI flow cytometry. Open circles indicate CI analysis of cisplatin with TDLR-505 and closed circles represent etoposide with TDLR-505. The combination index analysis was performed as previously described (20). The data are presented as the average±SD from (N=3). When cisplatin and compound TDLR-505 were used in combination, cell viability was decreased to a level that was greater than that induced by either agent alone, resulting in a synergy between the two compounds and CI of 0.4 at the highest fraction of cells affected. […] The ability of compound TDLR-505 to synergize with etoposide was also examined. Etoposide induces replication fork arrest and DNA damage response, both cellular processes that require RPA (21).

The subject of a further series is H460 NSCLC cell line. Nature of the series: Annexin V/PI flow cytometry, induction of cell death. It is filed as cell-based, human. The settings on record: Homo sapiens, NCI-H460; H460 cells, 48 hour exposure, annexinV/PI staining; read-out: IC50 (μM) Cellular. As for the experimental part: H460 cells were analyzed for apoptosis using an Annexin V-FITC/Propidium iodide (PI) Vybrant Apoptosis Assay Kit (Invitrogen), according to manufacturer's instructions. Cells were plated at a density of 1×10^4 cells per cm^2 and allowed to adhere for 24 hours and then treated with compound TDLR-505 for 48 hours. Following plating and treatment of H460 cells as described above, adherent and non-adherent cells were collected, processed, and analyzed on a BD FACScan flow cytometer. Data was analyzed using WinMDI software (http://facs.scripps.edu/software.html). Cell cycle analysis was performed by PI staining Briefly, cells were plated and treated with compound collected and then washed twice with PBS-EDTA supplemented with 1% BSA. Cells were fixed in 70% EtOH at −20° C. while vortexing followed by incubation on ice for 30 minutes. Cells were then collected and stained with PI solution (10 μg/mL PI and 25 μg/mL RNaseA in PBS-EDTA supplemented with 1% BSA). Cells were analyzed on a Becton Dickinson FACScan flow cytometer. Cells were gated and analyzed on a histogram with events plotted against the FL2-A parameter. Cell cycle distribution was analyzed using ModFit software. G2 arrest was induced by treatment with 0.8 μg/mL nocodazole for 12 hours (10). Cells were then washed with PBS and treated with either vehicle or compound TDLR-505 (100 μM). Cells were harvested and analyzed for cell cycle distribution as described above.
Referring now to TABLE 1, the in vitro IC50 was determined by EMSA analysis as described in FIG. 1A. The cellular IC50 value was determined by treating H460 cells with the indicated compounds and analyzing annexinV/PI staining as described in Methods. The in vitro and cellular data was analyzed using standard 4 parameter logistic-curve. The IC50 values and standard error of the fit were determined from this analysis.
Referring now to FIGS. 4A, 4B, 4C and 4D, the effects of compound TDRL-505 on induction of cell death and cell cycle progression in a H460 NSCLC cell line was measured. Briefly, H460 cells were treated with compound TDRL-505 for 48 hours and analyzed for cell viability via staining with AnnexinV/PI and presented as dot plots (see FIG. 3A). Referring now to FIG. 4B, the data from FIG. 4A was quantified and the percentage of Annexin-/PI-cells (lower left quadrant), indicating live cells, was calculated. The average±SD (N=4) are presented and the data was fit to a 4-parameter logistic curve.

A further series relates to RPA p34. Nature of the series: Western blot of RPA p34 in H460 cells. The note with it: 100 μM, 6 hours, without or with 25 μM etoposide. Type of series: cell-based, human. As for the experimental part: H460 cells were plated and treated with either vehicle or 100 μM compound TDLR-505 in the presence or absence of 25 μM etoposide for 6 hours and then processed for western blot analysis using a RIPA lysis and extraction procedure. RPA was detected with an anti-RPA p34 antibody (Neomarkers) and goat anti-mouse-HRP secondary (Santa Cruz). Bands were visualized using chemiluminescence detection.
These cellular effects seen following treatment with compound TDLR-505 correlate with an inability of RPA to interact with DNA which could then result in numerous possibilities including degradation or redistribution of RPA within the cell. Indirect immunofluorescence was used to assess how inhibition of RPA binding influences cellular localization. Referring now to FIG. 4C, H460 cells were treated with 50 μM compound TDLR-505 or vehicle for 3 hours and analyzed for RPA expression and localization by indirect immunofluorescence using an Alexa Fluor594 secondary antibody (red). Slides were counter stained with DAPI (blue) and images merged. Magnification of the boxed cells is presented below the low magnification images. […] (FIG. 4C). […] Referring now to FIG. 4D, H460 cells were treated with vehicle or 100 μM compound TDLR-505 without or with etoposide (25 μM) as indicated in the figure. RPA expression was assessed via western blot analysis probing for the p34 subunit. […]
A general note: Immunoblotting shows a protein as a band on a membrane.

In the case of `CCOc1ccc2cc(C3CC(c4ccc(Br)cc4)=NN3C(=O)CCC(=O)O)c(Cl)nc2c1` (centres unmarked) [TDRL-505], the “cytotoxic effect in A549 cells (in words)” value in the series on A549 NSCLC cell line is “A similar result”. Moreover, the “cell cycle distribution, asynchronous culture (in words)” value in the series on H460 NSCLC cells (75 μM, 48 hours) was “increase in the proportion of cells in G1-phase”. In addition, the “cell cycle progression after release from nocodazole G2 arrest (in words)” value in the series on H460 NSCLC cells (100 μM, 4, 8 and 12 hours) is listed as “did not enter S-phase even 12 hours post release”. In addition, the “interaction with cisplatin at lower fractions of cells affected (in words)” value with H460 cells (CI values greater than one) was “additive and then antagonistic”. Moreover, the “interaction with etoposide (in words)” value with H460 cells (all fractions of cells affected) is “synergistic activity”. In addition, the “combination index (CI) with cisplatin” value in the series on H460 cells (highest fraction of cells affected) is reported as 0.4. Further, the IC50 with H460 NSCLC cell line amounted to 30.8 ± 1.7 µM. Further, the “RPA expression (p34 western blot, in words)” value in the series with RPA p34 is recorded as “not degraded or reduced in expression”.
